What was measured:
[1] = target: T1, PPARγ-RXRα heterodimer (Homo sapiens, UniProt P19793+P37231); assay: PPARγ-RXRα heterodimer ligand activity (luciferase reporter, PPARγ:RXRα:4ERPP/CHO-K1 cells); format: cell-based; details: 48 hrs, concentration for 50% of the maximum fold induction
T1 construct: 1.4 kb DNA fragment containing PPARγ gene was recovered from the gel; 1.4 kb DNA fragment containing RXRα gene was recovered from the gel; expressed in transfected cells
T1 sequence (P37231 1-477 isoform P37231-2): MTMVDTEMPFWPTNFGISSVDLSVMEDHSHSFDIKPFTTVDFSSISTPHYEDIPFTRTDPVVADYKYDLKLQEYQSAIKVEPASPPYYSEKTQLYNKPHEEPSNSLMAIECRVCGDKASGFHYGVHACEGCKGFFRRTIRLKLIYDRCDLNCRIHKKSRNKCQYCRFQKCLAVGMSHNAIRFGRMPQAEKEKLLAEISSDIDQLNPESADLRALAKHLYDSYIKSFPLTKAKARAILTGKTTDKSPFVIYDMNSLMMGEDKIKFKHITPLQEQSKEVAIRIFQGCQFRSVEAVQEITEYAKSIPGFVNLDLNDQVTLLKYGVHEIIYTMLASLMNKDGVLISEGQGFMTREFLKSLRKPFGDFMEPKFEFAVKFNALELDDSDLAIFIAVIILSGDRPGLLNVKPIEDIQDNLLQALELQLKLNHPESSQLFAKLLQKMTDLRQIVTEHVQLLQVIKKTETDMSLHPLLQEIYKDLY
T1 sequence (P19793 1-462): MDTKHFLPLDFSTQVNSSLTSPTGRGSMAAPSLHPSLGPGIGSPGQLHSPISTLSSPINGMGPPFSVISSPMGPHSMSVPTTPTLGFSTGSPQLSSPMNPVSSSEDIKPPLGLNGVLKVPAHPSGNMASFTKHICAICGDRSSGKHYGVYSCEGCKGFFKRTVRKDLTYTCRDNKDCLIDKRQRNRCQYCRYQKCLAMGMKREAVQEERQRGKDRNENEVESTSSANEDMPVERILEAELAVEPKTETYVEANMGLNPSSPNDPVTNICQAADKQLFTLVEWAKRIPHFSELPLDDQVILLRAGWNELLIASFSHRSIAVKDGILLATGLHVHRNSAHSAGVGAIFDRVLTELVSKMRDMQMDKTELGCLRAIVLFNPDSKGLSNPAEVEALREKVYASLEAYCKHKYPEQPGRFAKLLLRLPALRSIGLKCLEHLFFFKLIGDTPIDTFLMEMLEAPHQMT
Description: (PPARγ-RXRα Heterodimer Ligand Activity)
PPARγ: RXRα: 4ERPP/CHO-K1 cells obtained in the following Reference Example 5 were cultured in HAM F12 medium (manufactured by NISSUI SEIYAKU) containing 10% fetal bovine serum [manufactured by Life Technologies, Inc., USA], seeded in a 96-well white plate [manufactured by Corning Coster Corporation, USA] at the density of 2×10^4 cells/well and cultured in a CO2 gas incubator at 37° C. overnight.
After washing the 96-well white plate with PBS (Phosphate-buffered saline), 90 μl of HAM F12 medium containing 0.1% fatty acid-free bovine serum albumin (BSA) and 10 μl of test compound were added, and the cells were cultured in a CO2 gas incubator at 37° C. for 48 hrs. The medium was removed and 40 μl of PicaGene 7.5 (manufactured by Wako Pure Chemical Industries, Ltd.) was added. After stirring, the luciferase activity was determined using Lumistar [manufactured by BMG Labtechnologies GmbH, Germany].
The fold induction was calculated from the luciferase activity of each test compound when the luciferase activity of the test compound non-administration group is taken as 1. The values of the test compound concentration and the fold induction were analyzed using PRISM 2.01 (produced by GraphPad Software Inc. USA) to calculate the EC50 values, the concentration of a test compound for 50% of the maximum fold induction. The results are shown in [Table 2].
Introduction of Human PPARγ- and RXRα-Expression Plasmid and Reporter Plasmid into CHO-K1 Cell as Well as Establishment of Expressed Cell
A CHO-K1 cell cultured in a tissue culture flask (750 ml) [produced by Corning Costar Corporation, USA] containing HAM F12 medium (produced by NISSUI SEIYAKU) supplemented with 10% fetal bovine serum [produced by Life Technologies, Inc., USA] was scraped by treating with 0.5 g/L trypsin-0.2 g/L EDTA (ethylenediamine tetraacetate) [produced by Life Technologies, Inc., USA], and then the cell was washed with PBS (Phosphate-buffered saline)[produced by Life Technologies, Inc., USA], centrifuged (1000 rpm, 5 minutes) and suspended in PBS. Subsequently, DNA was introduced into the cell under the conditions shown below using GENE PULSER (produced by Bio-Rad Laboratories, USA).
Namely, to a cuvette having a 0.4 cm gap were added 8×10^6 cells and 10 μg of plasmid pVgRXR2-hPPARγ obtained in Reference Example 3 and 10 μg of reporter plasmid pGL3-4ERPP-TK neo obtained in Reference Example 4, which was subjected to electroporation at the voltage of 0.25 kV under the capacitance of 960 μF. Subsequently, the cell was transferred into a HAM F12 medium containing 10% fetal bovine serum and cultured for 24 hours, and then the cell was scraped again and centrifuged, and then suspended in HAM F12 medium containing 10% fetal bovine serum supplemented with 500 μg/ml of Geneticin [produced by Life Technologies, Inc., USA] and 250 μg/ml of Zeocin (produced by Invitrogen, USA). The obtained suspension was diluted to the density of 10^4 cells/ml and inoculated in a 96-well plate [produced by Corning Costar Corporation, USA], which was cultured in a CO2 gas incubator at 37° C., whereby obtaining a Geneticin- and Zeocin-resistant transformant.
Subsequently, after the transformant cell line thus obtained was cultured in a 24-well plate [produced by Corning Costar Corporation, USA], a cell line in which the luciferase was expressed and induced, i.e., PPARγ: RXRα: 4ERPP/CHO-K1 cell was selected by the addition of 10 μM pioglitazone hydrochloride.

Compound | EC50 [1] [nM] | melting point [°C]
CCOC(=O)c1ccc(-c2ccc(-c3ccc(C(F)(F)F)cc3)o2)cc1 [Example 6, ethyl 4-[5-(4-triflubromethylphenyl)-2-furyl]benzoate] | 3.6 | 
Cn1c(-c2ccc(C(=O)O)cc2)ccc1-c1ccc(C(F)(F)F)cc1 [Example 7, 4-[1-methyl-5-(4-trifluoromethylphenyl)-2-pyrrolyl]benzoic acid] | 7.6 | 260 to 261
O=C(O)c1cccc(-c2ccc(-c3ccc(C(F)(F)F)cc3)o2)c1 [Example 9, 3-[5-(4-trifluoromethylphenyl)-2-furyl]benzoic acid] | 54 | 271 to 272
O=C(O)c1ccc(-c2ccc(-c3ccc(C(F)(F)F)cc3)s2)cc1 [Example 16, 4-[5-(4-trifluoromethylphenyl)-2-thienyl]benzoic acid] | 23 | 284 to 285
O=C(O)c1ccc(-c2cc(-c3ccc(C(F)(F)F)cc3)no2)cc1 [Example 26, 4-[3-(4-trifluorophenyl)-5-isoxazolyl]benzoic acid] | 23 | 
O=C(O)c1cccc(-c2cc(-c3ccccc3)on2)c1 [Example 27, 3-(5-phenyl-3-isoxazolyl)benzoic acid] | 2.1 | 250 to 251
O=C(O)c1ccc(-c2cc(-c3ccccc3)on2)cc1 [Example 28, 4-(5-phenyl-3-isoxazolyl)benzoic acid] | 2.3 | 297 to 298
O=C(O)c1cccc(-c2cc(-c3ccc(Cl)cc3)on2)c1 [Example 29, 3-[5-(4-chlorophenyl)-3-isoxazolyl]benzoic acid] | 0.59 | 298 to 299
O=C(O)c1ccc(-c2cc(-c3ccc(Cl)cc3)on2)cc1 [Example 30, 4-[5-(4-chlorophenyl)-3-isoxazolyl]benzoic acid] | 6 | > 300
O=C(O)c1cccc(-c2cc(-c3ccc(C(F)(F)F)cc3)no2)c1 [Example 33, 3-[3-(4-trifluoromethylphenyl)-5-isoxazolyl]benzoic acid] | 2.7 | 272 to 273
O=C(O)c1cccc(-c2cc(-c3ccc(C(F)(F)F)cc3)on2)c1 [Example 34, 3-[5-(4-trifluoromethylphenyl)-3-isoxazolyl]benzoic acid] | 1.2 | 276 to 277
O=C(O)c1ccc(-c2cc(-c3ccc(C(F)(F)F)cc3)on2)cc1 [Example 35, 4-[5-(4-trifluoromethylphenyl)-3-isoxazolyl]benzoic acid] | 3.8 | > 300
O=C(O)c1ccc(-c2noc(-c3ccc(C(F)(F)F)cc3)n2)cc1 [Example 44, 4-[5-(4-trifluoromethylphenyl)-1,2,4-oxadiazol-3-yl]benzoic acid] | 68 | 286 to 287
Nc1cc(C(=O)O)ccc1-c1nnc(-c2ccc(C(F)(F)F)cc2)o1 [Example 71, 3-amino-4-[5-(4-trifluoromethylphenyl)-1,3,4-oxadiazol-2-yl]benzoic acid] |  | > 300
CC(C)(C)c1ccc(-c2nnc(-c3ccc(C(=O)O)cc3N)o2)cc1 [Example 72, 3-amino-4-[5-(4-t-butylphenyl)-1,3,4-oxadiazol-2-yl]benzoic acid] |  | 266 to 268
NC(=O)c1ccc(-c2ccc(-c3ccc(C(F)(F)F)cc3)o2)cc1 [Example 73, 4-[5-(4-trifluoromethylphenyl)-2-furyl]benzamide] |  | 263 to 264
COC(=O)c1ccc(-c2nc(-c3ccc(C(C)(C)C)cc3)no2)c(N)c1 [Example 74, methyl 3-amino-4-[3-(4-t-butylphenyl)-1,2,4-oxadiazol-5-yl]benzoate] |  | 195 to 196
COC(=O)c1ccc(-c2nc(-c3ccc(Cl)cc3)no2)c(N)c1 [Example 75, methyl 3-amino-4-[3-(4-chlorophenyl)-1,2,4-oxadiazol-5-yl]benzoate] |  | 227 to 228
COC(=O)c1ccc(-c2nnc(-c3ccc(C(F)(F)F)cc3)o2)c(N)c1 [Example 76, methyl 3-amino-4-[5-(4-trifluoromethylphenyl)-1,3,4-oxadiazol-2-yl]benzoate] |  | 237 to 238
O=Cc1ccc(-c2noc(-c3ccc(C(F)(F)F)cc3)n2)cc1 [Example 77, 4-[5-(4-trifluoromethylphenyl)-1,2,4-oxadiazol-3-yl]benzaldehyde] |  | 145 to 146
O=C(O)c1ccc(-c2nc(-c3cccc(Oc4ccccc4)c3)no2)cc1 [Example 79, 4-[3-(3-phenoxyphenyl)-1,2,4-oxadiazol-5-yl]benzoic acid] |  | 292 to 293
O=Cc1cccc(-c2nnc(-c3ccc(C(F)(F)F)cc3)o2)c1 [Example 80, 3-[5-(4-trifluoromethylphenyl)-1,3,4-oxadiazol-2-yl]benzaldehyde] |  | 129 to 130
O=Cc1ccc(-c2nnc(-c3ccccc3[N+](=O)[O-])o2)cc1 [Example 81, 4-[5-(2-nitrophenyl)-1,3,4-oxadiazol-2-yl]benzaldehyde] |  | 189 to 190
O=Cc1cccc(-c2cc(-c3ccc(C(F)(F)F)cc3)no2)c1 [Example 82, 3-[3-(4-trifluoromethylphenyl)-5-isoxazolyl]benzaldehyde] |  | 151 to 152

From patent publication US7223791B2, “Function regulator for retinoid relative receptor” (Takeda Pharmaceutical Company Limited, priority 2001, dated 2007)
